Laboratory results: patent publication US20220409620A1, “REDUCING IMMUNOGENICITY TO PEGLOTICASE” (Horizon Pharma Rheumatology LLC, priority 2016, published 2022)

System: adult patients with uncontrolled gout
Assay: Serum uric acid (sUA) levels and sUA responder rate, open-label study of pegloticase with MTX (MIRROR OL)
Format: in vivo, human
Procedure: The primary objective is to estimate the response rate during Month 6 (Weeks 20, 22, and 24), as measured by the sustained normalization of serum uric acid (SUA) to <6 mg/dL for at least 80% of the time during Month 6 in subjects receiving KXX with MTX.
The primary efficacy outcome endpoint is the sustained normalization of SUA to <6 mg/dL for at least 80% of the time during month 6 (weeks 20, 22, and 24) in subjects receiving KXX with MTX. […] Participants who achieve this endpoint were classified as “responders.” Serum uric acid (SUA) responders may also be defined as participants achieving and maintaining SUA <6 mg/dL for at least 80% of the time during Month 6 (Weeks 20, 22, and 24).
Blood samples may be collected prior to each pegloticase infusion for measurement of SUA levels using the Beckman Coulter AU System Uric Acid procedure. Participants were declared “non-responders” if there were SUA measures >6 mg/dL at 2 consecutive study visits beginning with the week 2 visit. […] This assumption and subsequent discontinuation of pegloticase was consistent with the protocol of large phase III randomized controlled trials and the product label. A formal stopping rule was 2 occasions of SUA levels of greater than 6 mg/dL.
Clinical Chemistry—Blood samples were collected prior to each pegloticase infusion for measurement of SUA levels (primary efficacy parameter) using the Beckman Coulter AU System Uric Acid procedure. In this procedure uric acid is converted to hydrogen peroxide. Hydrogen peroxide reacts with reagent to produce a chromophore which is read bichromatically at 660/800 nm. The amount of dye formed is proportional to the uric acid concentration in the sample.
Serum samples for measurement of SUA levels were collected at the Screening Visit, the Week −4 Visit (prior to the first dose of MTX), and the Week −2 Visit during the MTX Run-in Period; within 48 hours prior to each pegloticase infusion and after the end of each pegloticase infusion prior to discharge from the site during the Pegloticase+IMM Period; at the non-infusion Week 52/End of Study/Early Termination Visits and at the Post Treatment 3 and 6 Month Follow-up Visits. Additional serum samples for SUA levels were collected at optional non-infusion (Frequent Sampling) Visits at Weeks 1 and 7. […] Subjects with SUA level >6 mg/dL at 2 consecutive visits beginning at Week 2 visit discontinued treatment, completed the End of Pegloticase Infusion Visit procedures within 2 weeks and continued the subject visits according to the protocol (without treatment).
Efficacy analyses were performed using the modified intention-to-treat (mITT) population, defined as all enrolled subjects who received ≥1 dose of pegloticase. The proportion of Month 6 responders was summarized, along with a 95% confidence interval for the proportion. The proportion of Month 3 and overall (Months 3 and 6 combined) responders was analyzed similarly.
A subject was declared a non-responder if the subject had SUA level >6 mg/dL at 2 consecutive study visits beginning with the Week 2 Visit. In addition, a subject who withdraws from study treatment for any reason after the first dose of pegloticase in the KXX+MTX Period and prior to Month 6 (for the primary endpoint) or Month 3 (for the secondary endpoint) was considered a non-responder if SUA values were not collected at the planned time points.
Patients were administered oral MTX (15 mg/week) and folate (1 mg/day) 4 weeks prior to the first pegloticase infusion (Day 1) and throughout the pegloticase treatment period. Blood was drawn prior to each infusion to measure sUA level, monitor clinical parameters, and examine for ADA development. All patients followed typical IR prophylaxis protocols (fexofenadine one day before and the morning of each infusion and acetaminophen and IV corticosteroid the morning of each infusion).

[1] = Month 6 sUA Responders, Week 48-Post-Infusion, n=3
[2] = Month 6 sUA Responders, Week 48-Pre-Infusion, n=2
[3] = Month 6 sUA Responders, Week 50-Post-Infusion, n=3
[4] = Month 6 sUA Responders, Week 50-Pre-Infusion, n=2
[5] = Month 6 sUA Responders, Week 52/ET, n=2
[6] = Week 2 - Post-Infusion, mITT Population
[7] = Week 2 - Pre-Infusion, mITT Population
[8] = Week 4 - Post-Infusion, mITT Population
[9] = Week 4 - Pre-Infusion, mITT Population
[10] = Week 6 - Post-Infusion, mITT Population
[11] = Week 6 - Pre-Infusion, mITT Population

Substance: pegloticase
- Serum Uric Acid, Change from Baseline, Mean (SD) [1]: −10.33 (4.922) mg/dL
- Serum Uric Acid, Change from Baseline, Median [1]: -9.80 mg/dL
- Serum Uric Acid, Observed, Mean (SD) [1]: 1.60 (2.252) mg/dL
- Serum Uric Acid, Observed, Median [1]: 0.30 mg/dL
- sUA <6 mg/dL, n (%) [1]: 3 (100%)
- Serum Uric Acid, Change from Baseline, Mean (SD) [2]: −12.65 (4.031) mg/dL
- Serum Uric Acid, Change from Baseline, Median [2]: -12.65 mg/dL
- Serum Uric Acid, Observed, Mean (SD) [2]: 0.30 (0.000) mg/dL
- Serum Uric Acid, Observed, Median [2]: 0.30 mg/dL
- sUA <6 mg/dL, n (%) [2]: 2 (100%)
- Serum Uric Acid, Change from Baseline, Mean (SD) [3]: −10.57 (4.598) mg/dL
- Serum Uric Acid, Change from Baseline, Median [3]: -9.80 mg/dL
- Serum Uric Acid, Observed, Mean (SD) [3]: 1.37 (1.848) mg/dL
- Serum Uric Acid, Observed, Median [3]: 0.30 mg/dL
- sUA <6 mg/dL, n (%) [3]: 3 (100%)
- Serum Uric Acid, Change from Baseline, Mean (SD) [4]: −12.65 (4.031) mg/dL
- Serum Uric Acid, Change from Baseline, Median [4]: -12.65 mg/dL
- Serum Uric Acid, Observed, Mean (SD) [4]: 0.30 (0.000) mg/dL
- Serum Uric Acid, Observed, Median [4]: 0.30 mg/dL
- sUA <6 mg/dL, n (%) [4]: 2 (100%)
- Serum Uric Acid, Change from Baseline, Mean (SD) [5]: −12.65 (4.031) mg/dL
- Serum Uric Acid, Change from Baseline, Median [5]: -12.65 mg/dL
- Serum Uric Acid, Observed, Mean (SD) [5]: 0.30 (0.000) mg/dL
- Serum Uric Acid, Observed, Median [5]: 0.30 mg/dL
- sUA <6 mg/dL, n (%) [5]: 2 (100%)
- Serum Uric Acid, Change from Baseline, Mean (SD) (Week 1, mITT Population): −7.28 (1.556) mg/dL
- Serum Uric Acid, Change from Baseline, Median (Week 1, mITT Population): -7.75 mg/dL
- Serum Uric Acid, Observed, Mean (SD) (Week 1, mITT Population): 0.30 (0.000) mg/dL
- Serum Uric Acid, Observed, Median (Week 1, mITT Population): 0.30 mg/dL
- sUA <6 mg/dL, n (%) (Week 1, mITT Population): 6 (100%)
- Serum Uric Acid, Change from Baseline, Mean (SD) [6]: −8.86 (2.486) mg/dL
- Serum Uric Acid, Change from Baseline, Median [6]: -8.70 mg/dL
- Serum Uric Acid, Observed, Mean (SD) [6]: 0.30 (0.000) mg/dL
- Serum Uric Acid, Observed, Median [6]: 0.30 mg/dL
- sUA <6 mg/dL, n (%) [6]: 14 (100%)
- Serum Uric Acid, Change from Baseline, Mean (SD) [7]: −7.90 (2.878) mg/dL
- Serum Uric Acid, Change from Baseline, Median [7]: -8.70 mg/dL
- Serum Uric Acid, Observed, Mean (SD) [7]: 1.26 (2.163) mg/dL
- Serum Uric Acid, Observed, Median [7]: 0.30 mg/dL
- sUA <6 mg/dL, n (%) [7]: 13 (92.9%)
- Serum Uric Acid, Change from Baseline, Mean (SD) [8]: −8.92 (2.577) mg/dL
- Serum Uric Acid, Change from Baseline, Median [8]: -8.80 mg/dL
- Serum Uric Acid, Observed, Mean (SD) [8]: 0.30 (0.000) mg/dL
- Serum Uric Acid, Observed, Median [8]: 0.30 mg/dL
- sUA <6 mg/dL, n (%) [8]: 13 (100%)
- Serum Uric Acid, Change from Baseline, Mean (SD) [9]: −7.54 (3.768) mg/dL
- Serum Uric Acid, Change from Baseline, Median [9]: -8.00 mg/dL
- Serum Uric Acid, Observed, Mean (SD) [9]: 1.61 (2.637) mg/dL
- Serum Uric Acid, Observed, Median [9]: 0.30 mg/dL
- sUA <6 mg/dL, n (%) [9]: 12 (85.7%)
- Serum Uric Acid, Change from Baseline, Mean (SD) [10]: −8.98 (2.679) mg/dL
- Serum Uric Acid, Change from Baseline, Median [10]: -8.95 mg/dL
- Serum Uric Acid, Observed, Mean (SD) [10]: 0.30 (0.000) mg/dL
- Serum Uric Acid, Observed, Median [10]: 0.30 mg/dL
- sUA <6 mg/dL, n (%) [10]: 12 (100%)
- Serum Uric Acid, Change from Baseline, Mean (SD) [11]: −8.31 (3.538) mg/dL
- Serum Uric Acid, Change from Baseline, Median [11]: -8.80 mg/dL
- Serum Uric Acid, Observed, Mean (SD) [11]: 0.91 (2.191) mg/dL
- Serum Uric Acid, Observed, Median [11]: 0.30 mg/dL
- sUA <6 mg/dL, n (%) [11]: 12 (92.3%)
- Serum Uric Acid, Change from Baseline, Mean (SD) (Week 7, mITT Population): −8.90 (4.755) mg/dL
- Serum Uric Acid, Change from Baseline, Median (Week 7, mITT Population): -7.85 mg/dL
